Test results reported in patent US12122764B2, “IKAROS zinc finger family degraders and uses thereof” (Gilead Sciences, Inc., priority 2021, dated 2024).

Each compound was assayed against T1, IKZF2 (Homo sapiens, UniProt Q96SW2+Q9UKS7) (assay: HiBiT protein tagging assay, in vitro IKZF2 degradation (HEK293)). Conditions: IKZF2-HiBiT reporter Flp-In T-REx HEK293 cells, doxycycline-induced, compound overnight (18-24 hr), normalized to DMSO control.
T1 construct: expressed in transfected cells
T1 sequence (Q9UKS7 1-500 isoform Q9UKS7-2): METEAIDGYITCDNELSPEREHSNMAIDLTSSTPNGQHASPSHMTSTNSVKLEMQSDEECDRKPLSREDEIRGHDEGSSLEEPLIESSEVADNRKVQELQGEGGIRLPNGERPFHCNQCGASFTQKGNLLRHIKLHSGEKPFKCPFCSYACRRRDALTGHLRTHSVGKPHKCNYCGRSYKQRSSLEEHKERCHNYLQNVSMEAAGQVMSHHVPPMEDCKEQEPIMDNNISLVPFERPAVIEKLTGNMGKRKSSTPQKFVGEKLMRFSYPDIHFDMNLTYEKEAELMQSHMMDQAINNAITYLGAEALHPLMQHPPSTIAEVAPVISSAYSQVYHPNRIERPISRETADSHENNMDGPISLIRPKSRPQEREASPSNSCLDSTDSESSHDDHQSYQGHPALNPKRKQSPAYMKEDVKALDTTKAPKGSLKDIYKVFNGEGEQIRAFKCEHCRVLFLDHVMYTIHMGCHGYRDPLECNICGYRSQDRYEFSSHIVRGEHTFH
T1 sequence (Q96SW2 whole entry): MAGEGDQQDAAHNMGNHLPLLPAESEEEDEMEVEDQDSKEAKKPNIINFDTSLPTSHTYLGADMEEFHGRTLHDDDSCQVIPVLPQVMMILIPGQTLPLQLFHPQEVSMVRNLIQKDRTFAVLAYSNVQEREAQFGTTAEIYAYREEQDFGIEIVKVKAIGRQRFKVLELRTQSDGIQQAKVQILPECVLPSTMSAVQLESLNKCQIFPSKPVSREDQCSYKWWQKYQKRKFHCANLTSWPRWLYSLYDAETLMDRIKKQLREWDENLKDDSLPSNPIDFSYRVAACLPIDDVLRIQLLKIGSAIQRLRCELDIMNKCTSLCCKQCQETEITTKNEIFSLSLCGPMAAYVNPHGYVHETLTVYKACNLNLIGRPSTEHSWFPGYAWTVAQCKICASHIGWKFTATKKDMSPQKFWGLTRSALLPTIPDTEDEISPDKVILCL
T1 sequence (Q16531 whole entry partner): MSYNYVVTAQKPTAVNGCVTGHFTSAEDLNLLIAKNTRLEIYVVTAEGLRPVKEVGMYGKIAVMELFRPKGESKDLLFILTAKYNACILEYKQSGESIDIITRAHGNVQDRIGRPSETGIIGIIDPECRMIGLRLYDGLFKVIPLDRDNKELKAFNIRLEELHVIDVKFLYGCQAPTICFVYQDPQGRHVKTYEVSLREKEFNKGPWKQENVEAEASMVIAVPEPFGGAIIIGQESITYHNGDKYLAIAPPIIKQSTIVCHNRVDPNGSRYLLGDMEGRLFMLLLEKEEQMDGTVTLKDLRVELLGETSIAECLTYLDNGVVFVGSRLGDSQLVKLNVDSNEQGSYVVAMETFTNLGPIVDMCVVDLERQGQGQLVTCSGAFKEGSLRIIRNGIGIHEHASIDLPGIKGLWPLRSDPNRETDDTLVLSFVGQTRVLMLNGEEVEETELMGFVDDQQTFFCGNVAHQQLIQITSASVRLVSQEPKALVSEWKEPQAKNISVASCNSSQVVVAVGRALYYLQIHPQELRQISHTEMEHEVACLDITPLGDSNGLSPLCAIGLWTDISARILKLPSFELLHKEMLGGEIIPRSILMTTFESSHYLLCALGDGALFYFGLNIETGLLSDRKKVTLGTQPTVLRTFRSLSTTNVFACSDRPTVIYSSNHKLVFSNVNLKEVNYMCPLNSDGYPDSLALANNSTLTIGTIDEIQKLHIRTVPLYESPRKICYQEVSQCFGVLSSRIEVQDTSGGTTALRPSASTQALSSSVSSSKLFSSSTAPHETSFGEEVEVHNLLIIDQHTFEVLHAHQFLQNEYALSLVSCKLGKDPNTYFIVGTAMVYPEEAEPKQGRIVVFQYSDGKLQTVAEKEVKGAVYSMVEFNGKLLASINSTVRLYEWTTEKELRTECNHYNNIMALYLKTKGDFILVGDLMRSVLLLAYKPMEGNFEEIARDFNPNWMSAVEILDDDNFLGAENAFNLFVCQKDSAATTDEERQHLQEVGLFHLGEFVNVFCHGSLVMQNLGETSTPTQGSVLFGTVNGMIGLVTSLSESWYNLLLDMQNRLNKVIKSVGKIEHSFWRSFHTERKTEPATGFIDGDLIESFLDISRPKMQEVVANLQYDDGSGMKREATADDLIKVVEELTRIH
Assay type: cell-based
Method: In vitro degradation of IKZF1 and IKZF2 was measured using HiBiT protein tagging and detection technology (Promega).
HiBiT technology (Promega) was used to develop the quantitative assays to measure the cellular IKZFs level by tagging an 11 amino acid HiBit peptides VSGWRLFKKIS (SEQ ID NO:1) to the protein of interest. Reporter plasmids were generated by fusing a linker sequence (GSSGGSSG; SEQ ID NO:2) followed by the HiBiT tag at the C terminus of IKZF1 and IKZF2. The fusion fragments were subsequently cloned into pcDNA5 pcDNA™5/FRT/TO plasmids (Thermo Fisher, cat #V652020) downstream of the Tetracycline operator. The resulting plasmids were co-transfected with pOG44 Flp-Recombinase Expression Vector (Thermo Fisher, cat #V600520) into Flp-In™ T-REx HEK293 line (Thermo Fisher, cat #R78077) and a stable cell pool was selected by adding 100 μg/ml of Hygromycin (Thermo Fisher, cat #10687010). The reporter cell enabled Tet-On inducible reporter expression from a single copy of the integrated gene.
On Day 1, Cells were grown to ˜80% confluency in TC medium (DMEM Glutamax (Gibco10569), 10% Tet free FBS (Takara 631106), and PenStrep Glutamin (Gibco 10378)) in tissue culture flasks. Doxycycline was then added to a final concentration of 1 μg/ml to induce reporter expression at 37° C. overnight.
On Day 2, 125 nL of serially-diluted solution of testing compounds were dispensed into 384-well white solid assay plates via ECHO acoustic liquid handler. Cells were lifted by 0.25% Trypsin (Gibco 25200) then pelleted by centrifugation (Beckman Avanti J-E) at 500×g for 5 min. Cell pellets were resuspended in TC medium at the concentration of 3e5/mL and 25 μL of cell suspension were added into each well of compound-spotted plates. The plates were returned to a 37° C. incubator overnight (18-24 hr).
On Day 3, assay plates were removed from the TC incubator and 25 μL of Nano-Glo lytic detection system (Promega, cat #N3030) was added to each well. Plates were incubated at r.t. for 3 min with shaking, and luminescence was read using an Envision reader (Perkin Elmer).
All raw data was normalized to DMSO control (final concentration: 0.5%) wells as POC and plotted out for EC50 and Dmax (Maximum degradation at the highest concentration tested in the assay).
For `O=C1CCC(N2Cc3cc(O[C@@H]4CN(Cc5ccccc5)CC[C@H]4N4CC(Oc5ccccc5Cl)C4)ccc3C2=O)C(=O)N1` (relative stereo) [Example 54, 3-(5-(((3,4-trans)-1-benzyl-4-(3-(2-chlorophenoxy)azetidin-1-yl)piperidin-3-yl)oxy)-1-oxoisoindolin-2-yl)piperidine-2,6-dione], the “IKZF2 Dmax (maximum degradation at the highest concentration tested)” value was 94%. `O=C1CCC(N2Cc3cc(O[C@@H]4CN(Cc5ccccc5)CC[C@H]4NCC(F)(F)F)ccc3C2=O)C(=O)N1` (relative stereo) [Example 45, 3-(5-(((3,4-trans)-1-benzyl-4-((2,2,2-trifluoroethyl)amino)piperidin-3-yl)oxy)-1-oxoisoindolin-2-yl)piperidine-2,6-dione] was tested, and the “IKZF2 Dmax (maximum degradation at the highest concentration tested)” value was 44%.

Same assay, conditions: IKZF2-HiBiT reporter Flp-In T-REx HEK293 cells, doxycycline-induced, compound overnight (18-24 hr), normalized to DMSO control; read-out: IKZF2 Dmax (maximum degradation at the highest concentration tested)
`N#Cc1ccc(CN2CC[C@H](NCc3ccccc3)[C@@H](Oc3ccc4c(c3)CN(C3CCC(=O)NC3=O)C4=O)C2)cc1` (mixture of isomers) [Example 32] showed a Dmax of 94%. In the case of `O=C1CCC(N2Cc3cc(O[C@H]4CN(CCF)CC[C@@H]4NCc4ccccc4)ccc3C2=O)C(=O)N1` (mixture of isomers) [Example 53], the Dmax is reported as 77%. `N#CCN1CCC(NCc2ccccc2)C(Oc2ccc3c(c2)CN(C2CCC(=O)NC2=O)C3=O)C1` (racemic) [Example 41] gave a Dmax of 28%. `CC(C)N[C@H]1CCN(Cc2nccs2)C[C@@H]1Oc1ccc2c(c1)CN(C1CCC(=O)NC1=O)C2=O` (stereo partly shown) [Example 62] showed a Dmax of 103%. With `O=C1CCC(N2Cc3cc(O[C@H]4CN(Cc5cccc(F)c5)CC[C@@H]4NCc4ccccc4)ccc3C2=O)C(=O)N1` (mixture of isomers) [Example 19] the Dmax was 89%. In the case of `CCN(CC)[C@H]1CCN(Cc2ccc(F)cc2)C[C@@H]1Oc1ccc2c(c1)CN(C1CCC(=O)NC1=O)C2=O` (stereo partly shown) [Example 65], the Dmax is reported as 99%. Compound `CCN[C@H]1CCN(Cc2ccc(F)cc2F)C[C@@H]1Oc1ccc2c(c1)CN(C1CCC(=O)NC1=O)C2=O` (mixture of isomers) [Example 38] has a Dmax of 97%. `O=C1CCC(N2Cc3cc(O[C@H]4CN(Cc5ccccc5)CC[C@@H]4NCc4ccccc4F)ccc3C2=O)C(=O)N1` (mixture of isomers) [Example 28] gave a Dmax of 90%. `O=C1CCC(N2Cc3cc(OC4CN(Cc5ccccc5)CCC4N(C4CC4)C4CC4)ccc3C2=O)C(=O)N1` (racemic) [Example 61] was tested, and the Dmax was 82%. Compound `CCNC1CCN(Cc2ccccc2)CC1Oc1ccc2c(c1)CN(C1CCC(=O)NC1=O)C2=O` (racemic) [Example 12] has a Dmax of 97%. `O=C1CCC(N2Cc3cc(OC4CN(Cc5ccncc5)CCC4NCc4ccccc4)ccc3C2=O)C(=O)N1` (racemic) [Example 9] gave a Dmax of 87%. Compound `O=C1CCC(N2Cc3cc(OC4CN(Cc5ccccc5)CCC4NCCF)ccc3C2=O)C(=O)N1` (racemic) [Example 59] has a Dmax of 86%. With `O=C1CCC(N2Cc3cc(O[C@H]4CN(Cc5ccccc5)CC[C@@H]4NCc4ccccc4Cl)ccc3C2=O)C(=O)N1` (mixture of isomers) [Example 10] the Dmax was 69%. In the case of `O=C1CCC(N2Cc3cc(O[C@H]4CN(Cc5ccc(F)cc5F)CC[C@@H]4NCc4ccccc4)ccc3C2=O)C(=O)N1` (mixture of isomers) [Example 21], the Dmax is reported as 92%. For `O=C1CCC(N2Cc3cc(O[C@H]4CN(Cc5cc(F)ccc5F)CC[C@@H]4NCc4ccccc4)ccc3C2=O)C(=O)N1` (mixture of isomers) [Example 23], the Dmax was 88%. Compound `N[C@H]1CCN(Cc2ccccc2)C[C@@H]1Oc1ccc2c(c1)CN(C1CCC(=O)NC1=O)C2=O` (stereo partly shown) [Example 42a] has a Dmax of 98%. `O=C1CCC(N2Cc3cc(OC4CN(Cc5ccccc5)CCC4NCC4CC4)ccc3C2=O)C(=O)N1` (racemic) [Example 37] gave a Dmax of 98%. Compound `CC(C)N1CCC(NCc2ccccc2)C(Oc2ccc3c(c2)CN(C2CCC(=O)NC2=O)C3=O)C1` (racemic) [Example 5] has a Dmax of 47%. Compound `CCNC1CCN(Cc2ccc(F)cc2)CC1Oc1ccc2c(c1)CN(C1CCC(=O)NC1=O)C2=O` (racemic) [Example 27] has a Dmax of 92%. For `O=C1CCC(N2Cc3cc(O[C@H]4CN(Cc5ccccc5)CC[C@@H]4NCc4ccc(F)cc4)ccc3C2=O)C(=O)N1` (mixture of isomers) [Example 26], the Dmax was 89%. `C[C@H](c1ccccc1)N1CC[C@H](NCc2ccccc2)[C@@H](Oc2ccc3c(c2)CN(C2CCC(=O)NC2=O)C3=O)C1` (mixture of isomers) [Example 51] showed a Dmax of 57%. Compound `O=C1CCC(N2Cc3cc(OC4CN(Cc5ccccn5)CCC4NCc4ccccc4)ccc3C2=O)C(=O)N1` (racemic) [Example 8] has a Dmax of 64%. For `CC(C)NC1CCN(Cc2ccccc2)CC1Oc1ccc2c(c1)CN(C1CCC(=O)NC1=O)C2=O` (racemic) [Example 36], the Dmax was 98%. In the case of `O=C1CCC(N2Cc3cc(OC4CN(Cc5ccccc5)CCC4NC4CC4)ccc3C2=O)C(=O)N1` (racemic) [Example 63], the Dmax is reported as 94%. In the case of `CC(C)N[C@H]1CCN(Cc2ncco2)C[C@@H]1Oc1ccc2c(c1)CN(C1CCC(=O)NC1=O)C2=O` (stereo partly shown) [Example 67], the Dmax is reported as 64%. In the case of `O=C1CCC(N2Cc3cc(O[C@H]4CN(Cc5ccccc5Cl)CC[C@@H]4NCc4ccccc4)ccc3C2=O)C(=O)N1` (mixture of isomers) [Example 3], the Dmax is reported as 85%. `O=C1CCC(N2Cc3cc(O[C@H]4CN(Cc5ccc(Cl)cc5)CC[C@@H]4NCc4ccccc4)ccc3C2=O)C(=O)N1` (mixture of isomers) [Example 30] gave a Dmax of 95%. `O=C1CCC(N2Cc3cc(O[C@H]4CN(Cc5ccccc5F)CC[C@@H]4NCc4ccccc4)ccc3C2=O)C(=O)N1` (mixture of isomers) [Example 17] was tested, and the Dmax was 91%. For `O=C1CCC(N2Cc3cc(OC4CN(Cc5ccccc5)CCC4NC(=O)c4ccccc4)ccc3C2=O)C(=O)N1` (stereo not drawn) [Example 44, N-((3,4-trans)-1-benzyl-3-((2-(2,6-dioxopiperidin-3-yl)-1-oxoisoindolin-5-yl)oxy)piperidin-4-yl)benzamide], the Dmax was 79%. For `CCN1CCC(NCc2ccccc2)C(Oc2ccc3c(c2)CN(C2CCC(=O)NC2=O)C3=O)C1` (racemic) [Example 4], the Dmax was 51%. Compound `CC(=O)NC1CCN(Cc2ccccc2)CC1Oc1ccc2c(c1)CN(C1CCC(=O)NC1=O)C2=O` (stereo not drawn) [Example 48, N-((3,4-trans)-1-benzyl-3-((2-(2,6-dioxopiperidin-3-yl)-1-oxoisoindolin-5-yl)oxy)piperidin-4-yl)acetamide] has a Dmax of 69%. `N[C@@H]1CCN(Cc2ccccc2)C[C@H]1Oc1ccc2c(c1)CN(C1CCC(=O)NC1=O)C2=O` (relative stereo) [Example 42, 3-(5-((trans-4-amino-1-benzylpiperidin-3-yl)oxy)-1-oxoisoindolin-2-yl)piperidine-2,6-dione] gave a Dmax of 96%. `CN1CC[C@@H](NCc2ccccc2)[C@H](Oc2ccc3c(c2)CN(C2CCC(=O)NC2=O)C3=O)C1` (relative stereo) [Example 1, 3-(5-((trans-4-(benzylamino)-1-methylpiperidin-3-yl)oxy)-1-oxoisoindolin-2-yl)piperidine-2,6-dione] was tested, and the Dmax was 53%. For `O=C1CCC(N2Cc3cc(OC4CN(CC(F)F)CCC4NCc4ccccc4)ccc3C2=O)C(=O)N1` (stereo not drawn) [Example 49, 3-(5-(((3,4-trans)-4-(benzylamino)-1-(2,2-difluoroethyl)piperidin-3-yl)oxy)-1-oxoisoindolin-2-yl)piperidine-2,6-dione], the Dmax was 69%. `C[C@@H](c1ccccc1)N1CC[C@H](NCc2ccccc2)[C@@H](Oc2ccc3c(c2)CN(C2CCC(=O)NC2=O)C3=O)C1` (mixture of isomers) [Example 50] gave a Dmax of 71%. Compound `CS(=O)(=O)NC1CCN(Cc2ccccc2)CC1Oc1ccc2c(c1)CN(C1CCC(=O)NC1=O)C2=O` (stereo not drawn) [Example 47, N-((3,4-trans)-1-benzyl-3-((2-(2,6-dioxopiperidin-3-yl)-1-oxoisoindolin-5-yl)oxy)piperidin-4-yl)methanesulfonamide] has a Dmax of 62%. `O=C1CCC(N2Cc3cc(O[C@H]4CN(c5ccccc5)C[C@@H]4NCc4ccccc4)ccc3C2=O)C(=O)N1` (stereo partly drawn) [Example 39, 3-(5-(((3S,4S)-4-(benzylamino)-1-phenylpyrrolidin-3-yl)oxy)-1-oxoisoindolin-2-yl)piperidine-2,6-dione] gave a Dmax of 39%. With `O=C1CCC(N2Cc3cc(O[C@H]4CN(Cc5ccc(F)c(F)c5)CC[C@@H]4NCc4ccccc4)ccc3C2=O)C(=O)N1` (mixture of isomers) [Example 22] the Dmax was 90%. In the case of `CC(C)N[C@H]1CCN(Cc2cnccn2)C[C@@H]1Oc1ccc2c(c1)CN(C1CCC(=O)NC1=O)C2=O` (stereo partly shown) [Example 68], the Dmax is reported as 74%. `O=C1CCC(N2Cc3cc(O[C@H]4CN(Cc5ccccc5)CC[C@@H]4NCc4ccccc4)ccc3C2=O)C(=O)N1` (stereo partly shown) [Example 2a] showed a Dmax of 97%. `CCNC1CCN(Cc2ccc3ccccc3c2)CC1Oc1ccc2c(c1)CN(C1CCC(=O)NC1=O)C2=O` (racemic) [Example 56] was tested, and the Dmax was 96%.
